Assay results taken from ChEMBL document CHEMBL1123692, “Dopamine autoreceptor agonists: resolution and pharmacological activity of 2,6-diaminotetrahydrobenzothiazole and an aminothiazole analogue of apomorphine” (J Med Chem, 1987).

How the values were obtained:
Rattus norvegicus [1] = assay: Accumulation of nmol of L-DOPA/g of tissue weight corpus striatum elicited by injection of GBL and NSD at a dose of 10 mg/kg; type: functional
Rattus norvegicus [2] = assay: Percent difference of DA utilization when compared to saline at a dose of 10 mg/kg; type: functional
Rattus norvegicus [3] = assay: Percent difference of L-DOPA accumulation when compared to saline at a dose of 10 mg/kg; type: functional
Rattus norvegicus [4] = assay: Utilization of DA/g by total brain without cerebellum following alpha-MT (250 mg/kg) at a dose of 10 mg/kg; type: functional
Rattus norvegicus [5] = assay: Percent difference of L-DOPA accumulation when compared to saline at a dose of 1.0 mg/kg

SMILES | Accumulation (Rattus norvegicus [1]) | Difference (Rattus norvegicus [2]) [%] | Difference (Rattus norvegicus [3]) [%] | DA utilization (Rattus norvegicus [4]) | Difference (Rattus norvegicus [5]) [%] | Accumulation (Rattus norvegicus [1]; 10 mg/kg) | Difference (Rattus norvegicus [2]; 10 mg/kg) [%] | Difference (Rattus norvegicus [3]; 10 mg/kg) [%] | DA utilization (Rattus norvegicus [4]; 10 mg/kg)
CCCN1CCCC2Cc3nc(N)sc3CC21 (stereo unspecified) | 9.1 | 75 | -62 | 4863 |  |  |  |  | 
CCCN[C@H]1CCc2nc(N)sc2C1.Cl.Cl | 11.3 |  |  | 6417 | -53 |  |  |  | 
Cl.Cl.Nc1nc2c(s1)C[C@H](N)CC2 |  | -12 |  | 2441 |  |  |  |  | 
CCCN[C@@H]1CCc2nc(N)sc2C1.Cl.Cl | 19 | 84 |  | 5104 | -21 |  |  |  | 
Cl.Cl.Nc1nc2c(s1)C[C@@H](N)CC2 |  | -17 |  | 2317 |  |  |  |  | 
CN1CCc2cccc3c2C1Cc1sc(N)nc1-3 (racemic) | 14.9 | 34 | -38 | 3721 |  |  |  |  | 
CN1CCc2cccc3c2C1Cc1sc(N)nc1-3.Cl.Cl (single isomer, unassigned; (+)) |  |  |  |  |  | 24.4 | -12 | 1 | 2441
CN1CCc2cccc3c2C1Cc1sc(N)nc1-3.Cl.Cl (single isomer, unassigned; (-)) |  |  |  |  |  | 20.1 | 41 | -16 | 3917
CN1CCc2cccc3c2[C@H]1Cc1ccc(O)c(O)c1-3 [APOMORPHINE] | 8.9 | 44 | -63 | 4008 |  |  |  |  | 
